According to patent US9695155B2, “Herbicidal substituted pyrimidinyloxy benzene compounds” (E. I. DU PONT DE NEMOURS AND COMPANY, priority 2013, dated 2017):

Experiments:
chickweed = test: Test C postemergence; assay type: in vivo, Stellaria media; settings: for Chickweed plant response rating / Plant response rating, Chickweed: scale 0 to 100 (0 no effect, 100 complete control)
Method in brief: (§1)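 Seeds are planted in blended loam soil and sand and treated preemergence, while seedlings in a peat moss/vermiculite medium receive postemergence sprays at 2 to 18 cm height. All plants stay in the greenhouse for 13 to 15 days before visual comparison with controls on a 0–100 scale.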

rice = test: Test B flooded paddy test; assay type: in vivo, Oryza sativa; settings: Flood, 250 g ai/ha; 0 to 100 scale where 0 is no effect and 100 is complete control
Method in brief: (§2)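 Seedlings are raised to two leaves, flooded to a depth of 3 cm and dosed by adding the compound to the floodwater. Water level is kept constant, and plants are scored visually versus controls 13–15 days later (0 = no effect, 100 = complete control).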

Heteranthera limosa = test: Test B flooded paddy test; assay type: in vivo; settings: Flood, 250 g ai/ha; 0 to 100 scale where 0 is no effect and 100 is complete control
Method in brief: as §2

yellow nutsedge = test: Test C postemergence; assay type: in vivo, Cyperus esculentus; settings: for Nutsedge, Yellow plant response rating / Plant response rating, Nutsedge, Yellow: scale 0 to 100 (0 no effect, 100 complete control)
Method in brief: as §1

sedge, umbrella = test: Test B flooded paddy test; assay type: in vivo, Cyperus difformis; settings: Flood, 250 g ai/ha; 0 to 100 scale where 0 is no effect and 100 is complete control
Method in brief: as §2

wheat, winter = test: Test C postemergence; assay type: in vivo, Triticum aestivum; settings: for Wheat plant response rating / Plant response rating, Wheat: scale 0 to 100 (0 no effect, 100 complete control)
Method in brief: as §1

galium = test: Test C postemergence; assay type: in vivo, Galium aparine; settings: for Galium plant response rating / Plant response rating, Galium: scale 0 to 100 (0 no effect, 100 complete control)
Method in brief: as §1

barnyardgrass [1] = test: Test A preemergence; assay type: in vivo, Echinochloa crus-galli; settings: for Plant response rating, Barnyardgrass: 125 g ai/ha
Method in brief: (§3)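 Greenhouse pot test, loam/sand soil. Formulation: non-phytotoxic solvent mix plus surfactant. Pre: directed spray onto soil after sowing. Post: plants at 1–2 leaf, 2–10 cm. Rated visually vs untreated controls at ~10 d, 0 (no effect) to 100 (complete control).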

velvetleaf = test: Test C postemergence; assay type: in vivo, Abutilon theophrasti; settings: for Velvetleaf plant response rating / Plant response rating, Velvetleaf: scale 0 to 100 (0 no effect, 100 complete control)
Method in brief: as §1

corn = test: Test A preemergence; assay type: in vivo, Zea mays; settings: for Plant response rating, Corn: 125 g ai/ha
Method in brief: as §3

barnyardgrass [2] = test: Test B flooded paddy test; assay type: in vivo, Echinochloa crus-galli; settings: Flood, 250 g ai/ha; 0 to 100 scale where 0 is no effect and 100 is complete control
Method in brief: as §2

ragweed = test: Test C postemergence; assay type: in vivo, Ambrosia elatior; settings: for Ragweed plant response rating / Plant response rating, Ragweed: scale 0 to 100 (0 no effect, 100 complete control)
Method in brief: as §1

lambsquarters = test: Test C postemergence; assay type: in vivo, Chenopodium album; settings: for Lambsquarters plant response rating / Plant response rating, Lambsquarters: scale 0 to 100 (0 no effect, 100 complete control)
Method in brief: as §1

morningglory = test: Test C postemergence; assay type: in vivo, Ipomoea coccinea; settings: for Morningglory plant response rating / Plant response rating, Morningglory: scale 0 to 100 (0 no effect, 100 complete control)
Method in brief: as §1

giant foxtail = test: Test A preemergence; assay type: in vivo, Setaria faberii; settings: for Plant response rating, Foxtail, Giant: 125 g ai/ha
Method in brief: as §3

wheat = test: Test A preemergence; assay type: in vivo, Triticum aestivum
Method in brief: as §3

[3] = 16 g ai/ha, postemergence, 0 is no effect, 100 is complete control
[4] = 31 g ai/ha, postemergence, visual rating, 13 to 15 days
[5] = 125 g ai/ha, postemergence, visual rating
[6] = 0 to 100 scale where 0 is no effect and 100 is complete control
[7] = 500 g ai/ha, 0 to 100 scale where 0 is no effect and 100 is complete control
[8] = 8 g ai/ha, postemergence, 0 is no effect, 100 is complete control
[9] = Postemergence, 62 g ai/ha, 13 to 15 days
[10] = 1000 g ai/ha, 0 to 100 scale, 0 no effect, 100 complete control, approx. 10 days
[11] = 16 g ai/ha, postemergence, visual rating, 13 to 15 days
[12] = Postemergence, 31 g ai/ha, 13 to 15 days
[13] = 500 g ai/ha, 0 to 100 scale, 0 no effect, 100 complete control, approx. 10 days

SMILES: Fc1cnc(Oc2cccc(C(F)F)c2-n2cc(C(F)(F)F)cn2)nc1 [Compound 164]
- Plant response rating (0 to 100), Chickweed (chickweed; [3]): 45
- Chickweed plant response rating (chickweed; [4]): 50
- Plant response rating, Chickweed (chickweed; [5]): 90
- Plant response rating, Chickweed (chickweed; Postemergence, 62 g ai/ha): 80
- Plant response rating, Rice (rice): 0
- Plant response rating, Ducksalad (Heteranthera limosa): 100
- Plant response rating (0 to 100), Nutsedge, Yellow (yellow nutsedge; [3]): 5
- Nutsedge, Yellow plant response rating (yellow nutsedge; [4]): 5
- Plant response rating, Nutsedge, Yellow (yellow nutsedge; [5]): 5
- Plant response rating, Nutsedge, Yellow (yellow nutsedge; Postemergence, 62 g ai/ha): 5
- Plant response rating, Sedge, Umbrella (sedge, umbrella): 90
- Plant response rating (0 to 100), Wheat (wheat, winter; [3]): 0
- Wheat plant response rating (wheat, winter; [4]): 0
- Plant response rating, Wheat (wheat, winter; [5]): 0
- Plant response rating, Wheat (wheat, winter; Postemergence, 62 g ai/ha): 0
- Plant response rating (0 to 100), Galium (galium; [3]): 50
- Galium plant response rating (galium; [4]): 55
- Plant response rating, Galium (galium; [5]): 65
- Plant response rating, Galium (galium; Postemergence, 62 g ai/ha): 80
- Plant response rating, Barnyardgrass (barnyardgrass [1]; [6]): 90
- Barnyardgrass plant response rating (barnyardgrass [1]; [7]): 100
- Velvetleaf plant response rating (velvetleaf; [4]): 15
- Plant response rating, Velvetleaf (velvetleaf; [5]): 65
- Plant response rating, Velvetleaf (velvetleaf; Postemergence, 62 g ai/ha): 40
- Plant response rating, Corn (corn; [6]): 10
- Corn plant response rating (corn; [7]): 60
- Plant response rating, Barnyardgrass (barnyardgrass [2]): 20
- Plant response rating (0 to 100), Ragweed (ragweed; [3]): 20
- Ragweed plant response rating (ragweed; [4]): 15
- Plant response rating, Ragweed (ragweed; [5]): 55
- Plant response rating, Ragweed (ragweed; Postemergence, 62 g ai/ha): 60
- Plant response rating (0 to 100), Lambsquarters (lambsquarters; [3]): 15
- Lambsquarters plant response rating (lambsquarters; [4]): 25
- Plant response rating, Lambsquarters (lambsquarters; [5]): 65
- Plant response rating, Lambsquarters (lambsquarters; Postemergence, 62 g ai/ha): 40
- Plant response rating (0 to 100), Morningglory (morningglory; [3]): 35
- Morningglory plant response rating (morningglory; [4]): 35
- Plant response rating, Morningglory (morningglory; [5]): 80
- Plant response rating, Morningglory (morningglory; Postemergence, 62 g ai/ha): 55
- Plant response rating, Foxtail, Giant (giant foxtail; [6]): 90
- Foxtail, Giant plant response rating (giant foxtail; [7]): 100
- Wheat plant response rating (0 to 100 scale) (wheat; 125 g ai/ha): 20
- Wheat plant response rating (wheat; [7]): 90

SMILES: Clc1cnc(Oc2ccccc2-n2cc(I)nn2)nc1 [Compound 222]
- Plant response rating (0 to 100), Chickweed (chickweed; [8]): 10
- Plant response rating (0 to 100), Chickweed (chickweed; [3]): 60
- Chickweed plant response rating (chickweed; [4]): 85
- Plant response rating, Chickweed (chickweed; [9]): 100
- Plant response rating, Rice (rice): 0
- Plant response rating, Ducksalad (Heteranthera limosa): 50
- Plant response rating (0 to 100), Nutsedge, Yellow (yellow nutsedge; [8]): 0
- Plant response rating (0 to 100), Nutsedge, Yellow (yellow nutsedge; [3]): 5
- Nutsedge, Yellow plant response rating (yellow nutsedge; [4]): 5
- Plant response rating, Nutsedge, Yellow (yellow nutsedge; [9]): 5
- Plant response rating, Sedge, Umbrella (sedge, umbrella): 70
- Plant response rating (0 to 100), Wheat (wheat, winter; [8]): 0
- Plant response rating (0 to 100), Wheat (wheat, winter; [3]): 0
- Wheat plant response rating (wheat, winter; [4]): 0
- Plant response rating, Wheat (wheat, winter; [9]): 5
- Plant response rating (0 to 100), Galium (galium; [8]): 65
- Plant response rating (0 to 100), Galium (galium; [3]): 70
- Galium plant response rating (galium; [4]): 85
- Plant response rating, Galium (galium; [9]): 85
- Barnyardgrass plant response rating (barnyardgrass [1]; [10]): 100
- Plant response rating (0 to 100), Velvetleaf (velvetleaf; [8]): 35
- Plant response rating (0 to 100), Velvetleaf (velvetleaf; [3]): 40
- Velvetleaf plant response rating (velvetleaf; [4]): 35
- Plant response rating, Velvetleaf (velvetleaf; [9]): 50
- Corn plant response rating (corn; [10]): 60
- Plant response rating, Barnyardgrass (barnyardgrass [2]): 0
- Plant response rating (0 to 100), Ragweed (ragweed; [8]): 20
- Plant response rating (0 to 100), Ragweed (ragweed; [3]): 40
- Ragweed plant response rating (ragweed; [4]): 45
- Plant response rating, Ragweed (ragweed; [9]): 60
- Plant response rating (0 to 100), Lambsquarters (lambsquarters; [8]): 50
- Plant response rating (0 to 100), Lambsquarters (lambsquarters; [3]): 65
- Lambsquarters plant response rating (lambsquarters; [4]): 65
- Plant response rating, Lambsquarters (lambsquarters; [9]): 75
- Plant response rating (0 to 100), Morningglory (morningglory; [8]): 40
- Plant response rating (0 to 100), Morningglory (morningglory; [3]): 90
- Morningglory plant response rating (morningglory; [4]): 45
- Plant response rating, Morningglory (morningglory; [9]): 70
- Foxtail, Giant plant response rating (giant foxtail; [10]): 100
- Wheat plant response rating (wheat; [10]): 70

SMILES: Fc1cnc(Oc2cccc(C(F)F)c2-n2cc(Cl)cn2)nc1 [Compound 94]
- Chickweed plant response rating (chickweed; [11]): 10
- Plant response rating (0 to 100), Chickweed (chickweed; 125 g ai/ha, postemergence): 70
- Plant response rating, Chickweed (chickweed; [12]): 60
- Plant response rating, Chickweed (chickweed; Postemergence, 62 g ai/ha): 60
- Plant response rating, Rice (rice): 0
- Plant response rating, Ducksalad (Heteranthera limosa): 40
- Plant response rating (0 to 100), Nutsedge, Yellow (yellow nutsedge; 125 g ai/ha, postemergence): 10
- Plant response rating, Nutsedge, Yellow (yellow nutsedge; [12]): 5
- Plant response rating, Nutsedge, Yellow (yellow nutsedge; Postemergence, 62 g ai/ha): 45
- Plant response rating, Sedge, Umbrella (sedge, umbrella): 30
- Plant response rating (0 to 100), Wheat (wheat, winter; 125 g ai/ha, postemergence): 0
- Plant response rating, Wheat (wheat, winter; [12]): 0
- Plant response rating, Wheat (wheat, winter; Postemergence, 62 g ai/ha): 0
- Galium plant response rating (galium; [11]): 45
- Plant response rating (0 to 100), Galium (galium; 125 g ai/ha, postemergence): 80
- Plant response rating, Galium (galium; [12]): 70
- Plant response rating, Galium (galium; Postemergence, 62 g ai/ha): 80
- Plant response rating, Barnyardgrass (barnyardgrass [1]; [6]): 80
- Barnyardgrass plant response rating (barnyardgrass [1]; [13]): 100
- Plant response rating (0 to 100), Velvetleaf (velvetleaf; 125 g ai/ha, postemergence): 40
- Plant response rating, Velvetleaf (velvetleaf; [12]): 20
- Plant response rating, Velvetleaf (velvetleaf; Postemergence, 62 g ai/ha): 65
- Plant response rating, Corn (corn; [6]): 0
- Corn plant response rating (corn; [13]): 30
- Plant response rating, Barnyardgrass (barnyardgrass [2]): 0
- Plant response rating (0 to 100), Ragweed (ragweed; 125 g ai/ha, postemergence): 45
- Plant response rating, Ragweed (ragweed; [12]): 15
- Plant response rating, Ragweed (ragweed; Postemergence, 62 g ai/ha): 55
- Plant response rating (0 to 100), Lambsquarters (lambsquarters; 125 g ai/ha, postemergence): 85
- Plant response rating, Lambsquarters (lambsquarters; [12]): 65
- Plant response rating, Lambsquarters (lambsquarters; Postemergence, 62 g ai/ha): 75
- Plant response rating (0 to 100), Morningglory (morningglory; 125 g ai/ha, postemergence): 55
- Plant response rating, Morningglory (morningglory; [12]): 75
- Plant response rating, Morningglory (morningglory; Postemergence, 62 g ai/ha): 75
- Plant response rating, Foxtail, Giant (giant foxtail; [6]): 100
- Foxtail, Giant plant response rating (giant foxtail; [13]): 100
- Plant response rating, Wheat (wheat; 125 g ai/ha, 0 to 100 scale where 0 is no effect and 100 is complete control): 0
